Experimental data reported in ChEMBL document CHEMBL1201862, “PubChem BioAssay data set” (2004).
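Test compounds were applied to cells in 96-well plates for 48 hours at 5 doses. GI50 marks 50% less growth.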 Calls of active or inactive are those of the source. No stated cut-off is given here; in the data, active = GI50 up to about 1.1 µM and inactive = higher.

Legend:
Assay in all cases: NCI-60 cell line screen, 48 h
786-0 = tested on: 786-0
A498 = tested on: A498
A549 = tested on: A549
ACHN = tested on: ACHN
BT-549 = tested on: BT-549
CAKI-1 = tested on: CAKI-1
CCRF-CEM = tested on: CCRF-CEM
COLO 205 = tested on: COLO 205
DU-145 = tested on: DU-145
EKVX = tested on: EKVX
HCC 2998 = tested on: HCC 2998
HCT-116 = tested on: HCT-116
HCT-15 = tested on: HCT-15
HL-60 = tested on: HL-60
HOP-62 = tested on: HOP-62
HOP-92 = tested on: HOP-92
HT-29 = tested on: HT-29
Hs-578T = tested on: Hs-578T
IGROV-1 = tested on: IGROV-1
K562 = tested on: K562
KM12 = tested on: KM12
LOX IMVI = tested on: LOX IMVI
M14 = tested on: M14
MCF7 = tested on: MCF7
MDA-MB-231 = tested on: MDA-MB-231
MDA-MB-435 = tested on: MDA-MB-435
MDA-N = tested on: MDA-N
MOLT-4 = tested on: MOLT-4
NCI-H226 = tested on: NCI-H226
NCI-H23 = tested on: NCI-H23
NCI-H460 = tested on: NCI-H460
NCI/ADR-RES = tested on: NCI/ADR-RES
OVCAR-3 = tested on: OVCAR-3
OVCAR-4 = tested on: OVCAR-4
OVCAR-5 = tested on: OVCAR-5
OVCAR-8 = tested on: OVCAR-8
PC-3 = tested on: PC-3
RPMI-8226 = tested on: RPMI-8226
RXF 393 = tested on: RXF 393
SF-268 = tested on: SF-268
SF-295 = tested on: SF-295
SF-539 = tested on: SF-539
SK-MEL-28 = tested on: SK-MEL-28
SK-MEL-5 = tested on: SK-MEL-5
SK-OV-3 = tested on: SK-OV-3
SN12C = tested on: SN12C
SNB-75 = tested on: SNB-75
SR = tested on: SR
SW-620 = tested on: SW-620
T47D = tested on: T47D
TK-10 = tested on: TK-10
U-251 = tested on: U-251
UACC-257 = tested on: UACC-257
UACC-62 = tested on: UACC-62
UO-31 = tested on: UO-31
Malme-3M = tested on: Malme-3M
NCI-H522 = tested on: NCI-H522
SK-MEL-2 = tested on: SK-MEL-2
SNB-19 = tested on: SNB-19

Measured: GI50

Brc1ccc(-c2ccc(-c3ccc(-c4ccc(Br)s4)s3)s2)s1
> 100 µM: HCT-15
inactive: 786-0 > 100 µM | A498 > 100 µM | A549 > 100 µM | ACHN > 100 µM | BT-549 > 100 µM | CAKI-1 > 100 µM | CCRF-CEM > 100 µM | COLO 205 > 100 µM | DU-145 > 100 µM | EKVX > 100 µM | HCC 2998 > 100 µM | HCT-116 > 100 µM | HL-60 > 100 µM | HOP-62 > 100 µM | HOP-92 > 100 µM | HT-29 > 100 µM | Hs-578T > 100 µM | IGROV-1 > 100 µM | K562 > 100 µM | KM12 > 100 µM | LOX IMVI > 100 µM | M14 > 100 µM | MCF7 > 100 µM | MDA-MB-231 > 100 µM | MDA-MB-435 > 100 µM | MDA-N > 100 µM | MOLT-4 > 100 µM | NCI-H226 54.1 µM | NCI-H23 > 100 µM | NCI-H460 > 100 µM | NCI/ADR-RES > 100 µM | OVCAR-3 > 100 µM | OVCAR-4 > 100 µM | OVCAR-5 > 100 µM | OVCAR-8 > 100 µM | PC-3 > 100 µM | RPMI-8226 > 100 µM | RXF 393 > 100 µM | SF-268 > 100 µM | SF-295 > 100 µM | SF-539 > 100 µM | SK-MEL-28 > 100 µM | SK-MEL-5 > 100 µM | SK-OV-3 > 100 µM | SN12C > 100 µM | SNB-75 > 100 µM | SR > 100 µM | SW-620 > 100 µM | T47D > 100 µM | TK-10 > 100 µM | U-251 > 100 µM | UACC-257 > 100 µM | UACC-62 > 100 µM | UO-31 > 100 µM

C/C(CC1C2CCCC1C2)=N\NC(N)=O (configuration not stated)
> 100 µM: HCT-15
inactive: 786-0 > 100 µM | A549 > 100 µM | ACHN > 100 µM | BT-549 > 100 µM | CAKI-1 > 100 µM | CCRF-CEM > 100 µM | COLO 205 > 100 µM | DU-145 > 100 µM | EKVX > 100 µM | HCC 2998 > 100 µM | HCT-116 > 100 µM | HL-60 > 100 µM | HOP-62 > 100 µM | HOP-92 > 100 µM | HT-29 > 100 µM | Hs-578T > 100 µM | IGROV-1 > 100 µM | KM12 > 100 µM | LOX IMVI > 100 µM | M14 > 100 µM | MCF7 > 100 µM | MDA-MB-231 > 100 µM | MDA-MB-435 > 100 µM | MDA-N > 100 µM | MOLT-4 > 100 µM | Malme-3M > 100 µM | NCI-H226 > 100 µM | NCI-H23 > 100 µM | NCI-H460 > 100 µM | NCI-H522 > 100 µM | NCI/ADR-RES > 100 µM | OVCAR-3 7.24 µM | OVCAR-4 > 100 µM | OVCAR-5 > 100 µM | OVCAR-8 > 100 µM | PC-3 > 100 µM | RPMI-8226 > 100 µM | SF-268 > 100 µM | SF-295 > 100 µM | SF-539 > 100 µM | SK-MEL-28 > 100 µM | SK-MEL-2 > 100 µM | SK-MEL-5 > 100 µM | SK-OV-3 > 100 µM | SN12C > 100 µM | SNB-19 > 100 µM | SNB-75 > 100 µM | SR > 100 µM | SW-620 > 100 µM | T47D > 100 µM | TK-10 > 100 µM | U-251 > 100 µM | UACC-257 > 100 µM | UACC-62 > 100 µM | UO-31 > 100 µM

CN(C)CCCCN1c2ccccc2Sc2ccc(N=[N+]=[N-])cc21
inactive: 786-0 8.69 µM | A498 8.73 µM | A549 9.93 µM | ACHN 3.2 µM | BT-549 11.8 µM | CAKI-1 5.62 µM | CCRF-CEM 2.69 µM | COLO 205 1.72 µM | DU-145 5.7 µM | EKVX 13.2 µM | HCC 2998 1.66 µM | HCT-116 4.21 µM | HL-60 2.06 µM | HOP-62 11.5 µM | HOP-92 3.56 µM | HT-29 2.22 µM | Hs-578T 5.22 µM | IGROV-1 3.08 µM | K562 2.05 µM | KM12 3.15 µM | LOX IMVI 2.26 µM | M14 1.67 µM | MCF7 2.45 µM | MDA-MB-231 7.28 µM | MDA-MB-435 2.06 µM | MDA-N 1.82 µM | MOLT-4 1.39 µM | Malme-3M 1.76 µM | NCI-H226 6.11 µM | NCI-H23 13.3 µM | NCI-H460 4.09 µM | NCI-H522 4.09 µM | NCI/ADR-RES 9.98 µM | OVCAR-3 6.05 µM | OVCAR-4 6.43 µM | OVCAR-5 3.3 µM | OVCAR-8 10 µM | PC-3 3.15 µM | RPMI-8226 2.29 µM | RXF 393 4.06 µM | SF-268 5.97 µM | SF-295 5.66 µM | SF-539 5.05 µM | SK-MEL-28 1.91 µM | SK-MEL-2 3.08 µM | SK-MEL-5 1.67 µM | SK-OV-3 12.9 µM | SN12C 8.43 µM | SNB-19 8.85 µM | SNB-75 2.62 µM | SW-620 4.82 µM | T47D 4.32 µM | TK-10 12.1 µM | U-251 3.13 µM | UACC-257 1.92 µM | UACC-62 1.88 µM | UO-31 6.34 µM
3.72 µM: HCT-15

Cc1cc2ccccc2n1CC(=O)N1CCCC1
> 100 µM: HCT-15
inactive: 786-0 > 100 µM | A549 > 100 µM | ACHN > 100 µM | BT-549 > 100 µM | CCRF-CEM > 100 µM | COLO 205 > 100 µM | DU-145 > 100 µM | EKVX > 100 µM | HCC 2998 > 100 µM | HCT-116 > 100 µM | HL-60 > 100 µM | HOP-62 > 100 µM | HOP-92 > 100 µM | HT-29 > 100 µM | Hs-578T > 100 µM | IGROV-1 > 100 µM | K562 > 100 µM | KM12 > 100 µM | LOX IMVI > 100 µM | M14 > 100 µM | MCF7 > 100 µM | MDA-MB-231 > 100 µM | MDA-MB-435 > 100 µM | MDA-N > 100 µM | MOLT-4 > 100 µM | Malme-3M > 100 µM | NCI-H226 > 100 µM | NCI-H23 > 100 µM | NCI-H460 > 100 µM | NCI-H522 > 100 µM | NCI/ADR-RES > 100 µM | OVCAR-3 > 100 µM | OVCAR-4 > 100 µM | OVCAR-5 > 100 µM | OVCAR-8 > 100 µM | PC-3 > 100 µM | RPMI-8226 > 100 µM | RXF 393 > 100 µM | SF-268 > 100 µM | SF-539 > 100 µM | SK-MEL-28 > 100 µM | SK-MEL-2 > 100 µM | SK-MEL-5 > 100 µM | SK-OV-3 > 100 µM | SN12C > 100 µM | SNB-19 > 100 µM | SNB-75 > 100 µM | SR > 100 µM | SW-620 > 100 µM | T47D > 100 µM | TK-10 > 100 µM | U-251 > 100 µM | UACC-257 > 100 µM | UACC-62 > 100 µM | UO-31 > 100 µM

CCOC(=O)C1(Cc2ccccc2)Cc2cc3c(cc2C1=O)CCC3 (configuration not stated)
> 100 µM: HCT-15
inactive: 786-0 > 100 µM | A498 > 100 µM | A549 > 100 µM | ACHN > 100 µM | BT-549 > 100 µM | CCRF-CEM > 100 µM | COLO 205 > 100 µM | DU-145 > 100 µM | EKVX > 100 µM | HCC 2998 > 100 µM | HCT-116 > 100 µM | HL-60 > 100 µM | HOP-62 > 100 µM | HOP-92 > 100 µM | HT-29 > 100 µM | Hs-578T > 100 µM | IGROV-1 > 100 µM | K562 > 100 µM | KM12 > 100 µM | LOX IMVI > 100 µM | M14 92 µM | MCF7 > 100 µM | MDA-MB-231 > 100 µM | MDA-MB-435 > 100 µM | MDA-N > 100 µM | MOLT-4 > 100 µM | Malme-3M > 100 µM | NCI-H226 > 100 µM | NCI-H23 > 100 µM | NCI-H460 > 100 µM | NCI/ADR-RES > 100 µM | OVCAR-3 > 100 µM | OVCAR-4 > 100 µM | OVCAR-5 > 100 µM | OVCAR-8 > 100 µM | PC-3 > 100 µM | RPMI-8226 > 100 µM | RXF 393 > 100 µM | SF-268 > 100 µM | SF-295 > 100 µM | SF-539 > 100 µM | SK-MEL-28 > 100 µM | SK-MEL-2 > 100 µM | SK-MEL-5 > 100 µM | SK-OV-3 > 100 µM | SN12C > 100 µM | SNB-19 > 100 µM | SNB-75 > 100 µM | SR > 100 µM | SW-620 > 100 µM | T47D > 100 µM | TK-10 > 100 µM | U-251 > 100 µM | UACC-257 > 100 µM | UACC-62 > 100 µM | UO-31 > 100 µM
